The text below walks through data of patent US20250188075A1, “SUBSTITUTED HETEROCYCLIC CSNK1 INHIBITORS” (The Broad Institute, Inc., priority 2022, published 2025).

Series [1] is described as follows: Solubility assay (thermodynamic solubility). It counts as physicochemical. The following applies: aqueous buffer, 24 h. As for the experimental part: Solubility of solid compound in aqueous buffer was determined by an equilibrium shake flask method. A saturated solution of drug in solvent (˜2 mg/ml solvent) was prepared and the solution was mixed for 24 h to ensure that equilibrium has been reached. The solution was centrifuged to remove the insoluble fraction and the concentration of the compound in solution was determined by HPLC-UV using a standard calibration curve (Kerns, E. H. et al., Solubility Methods in: Drug-like Properties: Concepts, Structure Design and Methods, p 276-286. Burlington, MA: Academic Press 2008).

The target of series [2] is human Ether-a-go-go-Related Gene (hERG) potassium channel (Homo sapiens (Human), UniProt Q12809). Put plainly: hERG inhibition assay, automated voltage clamp. It counts as cell-based. The following applies: HEK293 cells stably expressing hERG alpha subunit. As for the experimental part: Following harvest, cells were transferred to the cell reservoir of a 384 channel automated patch clamp device and stored there at 20° C. until usage.
Upon start of the automated voltage clamp procedure, hERG cells were transferred to a 384 well patch clamp chip (pipette resistance of ˜[…] (2) prefilled with external solution (containing in mM: 143 NaCl, 4 KCl, 2 CaCl2), 1 MgCl2, 5 glucose, 10 HEPES; pH 7.4 (NaOH)). Underpressure was applied underneath the glass bottom of the patch clamp chip to position the hERG cells on the recording sites in the glass bottom of the chip. Following successful cell catch, underpressure was stopped and a seal enhancing solution (containing in mM: 78 NaCl, 60 NMDG, 4 KCl, 10 CaCl2), 1 MgCl2, 5 glucose, 10 HEPES; pH 7.4 (HCl)) was added to the hERG cells to facilitate the formation of stable seals between the membranes of the hERG cells and the glass next to the recording sites. Then, hERG cells were washed several times with wash solution (containing in mM: 87 NaCl, 60 NMDG, 4 KCl, 2 CaCl2), 1 MgCl2, 5 glucose, 10 HEPES; pH 7.4 (HCl)) to remove excess seal enhancing solution. In the meantime, the membrane parts of the hERG cells covering the recording sites were exposed to internal solution (containing in mM: 10 NaCl, 123 KF, 10 EGTA, 10 HEPES; pH 7.2 (KOH)) supplemented with 5-20 μM Escin, and the perforated patch configuration was established. Next, the holding potential was stepwise adjusted to −80 mV, capacitance was compensated, and a series of defined voltage commands was initiated to trigger the hERG current response from the hERG cells (−80 mV for 200 ms, +20 mV for 1000 ms, −40 mV for 500 ms; repeated at a frequency of 0.1 Hz). To determine whether the test item inhibits hERG, different solutions were sequentially applied to the hERG cells: First, a negative control (i.e. wash solution supplemented with 0.3% DMSO and 0.01% HSA) was applied for at least 3 min to investigate the basic electrophysiological properties of the hERG cells as well as define their standard current response. Next, a solution containing the test item at a final concentration of (0.1, 1, or 10) μM was applied for 10 min to measure eventual inhibitory effects of the test item on the hERG current (—the test item solution was produced from a 10 mM DMSO stock by using an automated pipetting device and sequential dilution). Finally, a positive control (i.e. wash solution supplemented with 0.3% DMSO, 0.01% HSA, and 10 μM quinidine) was added to the cells for ˜3 min to block the hERG current and, thereby, define the maximum inhibition. For data analysis, experimental results were processed using the automated patch clamp device-specific software as well as a custom-made software, and TIBCO Spotfire. For each successful recording, hERG tail current amplitudes were averaged from three consecutive current responses at the end of the negative control phase, test item phase, and positive control phase, respectively. Resulting mean hERG tail current amplitudes were normalized to the mean hERG tail current amplitude at the end of the negative control phase with nominal 0% inhibition as well as the hERG tail current amplitude at the end of the positive control phase with nominal 100% inhibition. Then, the effect of the test item was calculated as a percentage inhibition value at the test item concentration applied. Finally, percentage inhibition values from all successful recordings at a particular test item concentration were averaged and combined to construct a standard sigmoidal dose response curve, determine the half maximal inhibitory concentration (IC50) of the test item as well as extrapolate its IC20.
In general terms: Block of hERG is tested as a sign of cardiac risk.

human Ether-a-go-go-Related Gene (hERG) potassium channel, sequence (Q12809 whole entry): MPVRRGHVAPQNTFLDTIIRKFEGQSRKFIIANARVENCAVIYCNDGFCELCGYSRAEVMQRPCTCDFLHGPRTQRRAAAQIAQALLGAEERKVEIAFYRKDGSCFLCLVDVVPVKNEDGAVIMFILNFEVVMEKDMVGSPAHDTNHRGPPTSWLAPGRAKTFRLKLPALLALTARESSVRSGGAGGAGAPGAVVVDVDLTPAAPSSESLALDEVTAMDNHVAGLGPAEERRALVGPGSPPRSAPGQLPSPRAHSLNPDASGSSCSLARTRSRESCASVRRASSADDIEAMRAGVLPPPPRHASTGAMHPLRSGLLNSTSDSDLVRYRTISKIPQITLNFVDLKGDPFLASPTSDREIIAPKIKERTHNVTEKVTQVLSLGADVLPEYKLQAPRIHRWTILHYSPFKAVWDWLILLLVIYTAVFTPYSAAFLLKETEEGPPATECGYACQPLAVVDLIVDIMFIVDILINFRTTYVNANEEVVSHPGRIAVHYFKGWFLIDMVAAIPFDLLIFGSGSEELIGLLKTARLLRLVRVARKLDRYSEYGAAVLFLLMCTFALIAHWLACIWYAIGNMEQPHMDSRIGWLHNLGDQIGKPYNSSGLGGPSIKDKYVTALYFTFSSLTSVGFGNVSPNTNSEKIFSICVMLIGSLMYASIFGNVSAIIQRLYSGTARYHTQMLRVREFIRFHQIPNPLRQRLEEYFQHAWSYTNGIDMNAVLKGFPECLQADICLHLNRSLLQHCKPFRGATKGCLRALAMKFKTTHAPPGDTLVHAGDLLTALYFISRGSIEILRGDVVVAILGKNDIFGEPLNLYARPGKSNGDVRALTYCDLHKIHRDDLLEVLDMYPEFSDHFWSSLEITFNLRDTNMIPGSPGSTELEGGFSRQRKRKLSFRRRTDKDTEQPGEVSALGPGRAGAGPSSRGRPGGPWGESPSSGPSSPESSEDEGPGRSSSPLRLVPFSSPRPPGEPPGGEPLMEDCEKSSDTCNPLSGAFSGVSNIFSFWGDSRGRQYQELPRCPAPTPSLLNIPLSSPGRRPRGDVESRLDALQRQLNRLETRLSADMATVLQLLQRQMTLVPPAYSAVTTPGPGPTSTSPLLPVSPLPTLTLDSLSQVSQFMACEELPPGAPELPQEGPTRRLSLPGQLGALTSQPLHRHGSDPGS

For `O=C(Cc1ccc(F)cc1)Nc1cc(-c2[nH]c3ccc(F)nc3c2-c2ccccn2)ccn1` [Example C4, reference compound], in series [1], the “Thermodynamic Solubility [mg/l] (mean)” value is 2.35 mg/L. Further, the IC50 (in general, the midpoint of a concentration-inhibition curve) in series [2] stood at 1.16 µM.
